Values quoted from earlier work as cited in patent publication US20040139488A1, “Compositions and methods for enhancing disease resistance in fish” (priority 2002, published 2004).

What was measured:
E. ictaluri = conditions: synthesized, HPLC-purified peptide, in vitro
Aeromonas salmonicida = conditions: synthesized, HPLC-purified peptide, in vitro

cecropin B: mature cecropin B from Hyalophora cecropia (SEQ ID NO:19), synthesized peptide purified by high-pressure liquid chromatography (KWKVFKKIEKMGRNIRNGIVKAGPAIAVLGEAKALG; listed as Hyalophora cecropia)
bactericidal activity against E. ictaluri (E. ictaluri): possess the predicted bactericidal activity | bactericidal activity against Aeromonas salmonicida (Aeromonas salmonicida): possess the predicted bactericidal activity
